# Test results: US20250090510A1, “eIF4G1-eIF1 INHIBITORS AND USE THEREOF” (YEDA RESEARCH AND DEVELOPMENT CO. LTD., priority 2022, published 2025)
# How the values were obtained:
# eIF1-eIF4G1 interaction = target: T1, eIF1-eIF4G1 interaction (Homo sapiens, UniProt Q04637); experiment: GST pull down of His-eIF1 with GST-eIF4G1; format: binding; conditions: GST-eIF4G1 (aa 675-725) with His-eIF1, vs DMSO
# T1 construct: GST-eIF4G1 (aa 675-725) was incubated with His-eIF1; made in house; host or cells: His-eIF1: E. coli BL21
# T1 sequence (Q04637 675-725): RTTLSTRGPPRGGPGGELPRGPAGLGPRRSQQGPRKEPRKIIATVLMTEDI
# From the text: FIGS. 1A-G: Identification and initial characterization of eIF1-eIF4G1 inhibitors using a high-throughput drug screen (HTS). (1A) A flowchart describing the steps of the recombinant eIF1-eIF4G1 split-RL HTS. (1B) Selection of drugs that inhibit leaky scanning. HEK293T cells were transfected with a short 5′UTR bearing GFP reporter gene described on the top, treated with the indicated HTS hits, and then analyzed by western blot with GFP antibody. US and DS denote upstream and downstream AUG initiation sites, respectively. (1C) A graph showing the change in the ratio of the upstream and downstream AUG following treatment with the indicated drugs. (1D) The chemical structure of the eIF1-eIF4G1 inhibitors, i14G1-10 and i14G1-12. (1E) His-tagged eIF4G1 and His-tagged eIF1 were expressed in BL21 bacteria and purified using nickel NTA beads. Purified His-tagged eIF4G1 and His-tagged eIF1 were incubated with the indicated doses of either i14G1-10 (0-256 μM) or i14G1-12 (0-256 μM) for 5 minutes, followed by fluorescence measurement. For eIF4G1 excitation was at 280 nm and emission was at 350 nm. For eIF1 excitation was at 274 nm and emission was at 304 nm. The data shown represent three independent replicates. IC50 was calculated using Graphpad prism 9. (1F-1G) Western blots of GST pull down. […]
# HEK293T cells = experiment: Polysome fractionation and real-time PCR of specific genes; format: cell-based, human; conditions: 3 h
# Procedure: FIGS. 5A-D: 5′UTR length-dependent translational control by the eIF1-eIF4G1. […] The asterisks denote a statistically significant difference. **p<0.01, ****p<0.0001. (5B) A scheme of the firefly reporter genes that are driven by long (354 nt) and short (111 nt) 5′ UTR length, is shown on the top. HEK293T cells were transfected with these reporter genes. After 4 h, transfected cells were treated with DMSO, i14G1-10 (5 μM), or i14G1-12 (5 μM) for 16 h and analyzed for firefly luciferase activities. The graph presents the normalized luminescence activity of the long 5′UTR and the short 5′UTR reporters in the indicated treatments. The data are shown as mean±SEM, n=6. The asterisks denote statistically significant difference compared to DMSO, according to Student's t-tests (one-tailed, paired). *p<0.05; **p<0.01. (5C-D) HEK293T cells were treated with DMSO, i14G1-10, and i14G1-12 for 3 h, lysed, and subjected to sucrose gradient sedimentation and fractionation. Fractions were pooled according to polysome profile as free (grey), light (blue), and heavy (yellow) polysomal fractions. cDNA was prepared from each fraction pool and real-time PCR was performed for the indicated TISU genes (5C) or histone genes (5D). The data are shown as mean±SEM, n=3. The asterisks denote statistically significant difference compared to DMSO, according to Student's t-tests (one-tailed, paired), *p<0.05; **p<0.01.
# FIGS. 7A-E: (7A) Ribo-seq and TI-seq read tracks of representative stress response-associated mRNAs (DDIT3 and GADD34) in DMSO (black), i14G1-10 (red), and i14G1-12 (green) samples. The red triangle represents 5′UTR TIS codons and the green denotes annotated TIS. Black arrows show the translation direction. […] The graphs in the lower panel are the quantification of ATF4's uORF1′, uORF1, uORF2, and main-ORF reads of the Ribo-seq data. The asterisks denote statistically significant difference compared to DMSO, according to Student's t-tests (one-tailed, paired). **p<0.01, ***p<0.001, ****p<0.0001. (7C) HEK293T cells were treated with DMSO, i14G1-10, and i14G1-12 for 3 h, lysed and subjected to sucrose gradient sedimentation and fractionation. Fractions of the free (grey), light (blue), and heavy (yellow) were pooled. cDNA was prepared from each fraction pool and real-time PCR was performed for the indicated ISR genes. The data are shown as mean±SEM, n=3. The asterisks denote statistically significant difference compared to DMSO, according to Student's t-tests (one-tailed, paired). *p<0.05; **p<0.01. (7D) HEK293T cells were treated with DMSO, i14G1-10, and i14G1-12 for 3 h. The respective cell lysates were subjected to western blot to check the protein levels of ATF3 and ATF4 (left). The graph represents the relative chemiluminescence signal intensity (mean±SEM) for ATF4 and AT3 normalized to GAPDH protein levels of three biological replicates. The asterisks denote statistically significant difference compared to DMSO, according to Student's t-tests (one-tailed, paired), *p<0.05. (7E) Control MEFs and eIF2α S52A mutant MEFs were treated with DMSO (vehicle control), and sub-cytotoxic concentrations of i14G1-10 (30 μM) and i14G1-12 (15 μM) for 3h. Cell lysates were then subjected to sucrose gradient sedimentation to obtain polysome profiles.
# Polysome profile and real-time PCR. HEK293T cells were cultured in 10 cm plate up to 80% confluence, followed by DMSO, i14G1-10 (20 μM), and i14G1-12 (10 μM) treatment. After 3 h, the cells were incubated with 100 μg/ml cycloheximide for 5 minutes, washed with cold polysome buffer (20 mM Tris pH8, 140 mM KCl, 5 mM MgCl2, and 100 μg/ml cycloheximide). Cells were collected in 500-μl polysome buffer supplemented with 0.5% Triton, 0.5% DOC, 1.5 mM DTT, 150 units RNase inhibitor, and 5-μl protease inhibitor cocktail. Lysed samples were centrifuged at 12000 RPM, 5 minutes at 4° C. The cleared lysate was loaded onto sucrose density gradient (10-50%) and centrifuged at 38000 RPM for 105 minutes at 4° C. […]
Compound,association of eIF1 with eIF4G1 (eIF1-eIF4G1 interaction),translation of ACTB mRNA (control) in polysome fractions (HEK293T cells),translation of eight histone genes in polysome fractions (HEK293T cells),translation of seven TISU genes in polysome fractions (HEK293T cells),"translation of stress-response genes in Free, Light and Heavy polysome fractions (HEK293T cells)"
Cn1ccnc1S/C(=C/C=C(C#N)C#N)c1ccc(Cl)cc1 [i14G1-12],decrease in the association of eIF1 with eIF4G1,decreased translation of the ACTB mRNA,general trend of upregulation,either unaffected or slightly upregulated,all found to be upregulated
O=C(/C=C/Sc1ccc(C(F)(F)F)cn1)c1ccccc1 [i14G1-10],decrease in the association of eIF1 with eIF4G1,decreased translation of the ACTB mRNA,general trend of upregulation,either unaffected or slightly upregulated,all found to be upregulated
